The values that follow come from patent US20070048782A1, “Methods for assessing and treating leukemia” (priority 2001, published 2007).

As usually defined, the IC50 is the point on the concentration scale where inhibition reaches its midpoint.

Each structure is given as a SMILES string.

The subject of one test is U-937 cells. Kind of test: Toxic dose assay, viable cell count by trypan blue exclusion at day seven. It counts as cell-based. As to conditions: seven days of treatment, duplicate runs, read-out: IC50 (dose at which the number of viable cells in the treated sample was 50% of that in the control at day seven). As for the experimental part:
(§1) The AML-like cell lines HL-60 (promyelocytic) and U-937 (promonocytic) were obtained from the ATCC. AML-193 (monocytic) and THP-1 (monocytic) cells were obtained from the RW Johnson Pharmaceutical Research Center, San Diego. Cells were grown in Roswell Park Memorial Institute medium (RPMI) with 20% Fetal Bovine Serum (FBS). AML-193 was also supplemented with granulocyte-macrophage colony-stimulating factor (GM-CSF) (10 ng/ml), insulin (0.005 mg/ml), and transferrin (0.005 mg/ml).
(§2) The cells of Example 1 were inoculated into 6-well plates at an initial concentration of 1×10^5 cells/ml. (B)-6-[amino(4-chlorophenyl)(1-methyl-1H-imidazol-5-yl)methyl]-4-(3-chlorophenyl)-1-methyl-2(1H)-quinolinone) was added at concentrations ranging form 0.5 to 500 nM in 3 μl of DMSO directly to the culture medium. Control cells from Example 1 were grown in medium alone or in medium supplemented with vehicle (0.1% DMSO). Cell numbers were counted at days four and seven in a hemocytometer and cell viability was determined by trypan blue exclusion assay. The IC50 was defined as the dose at which the number of viable cells in the treated sample was 50% of that in the control at day seven. Calculations were made based on duplicate runs of the experiment. The IC50 of the four cell lines was calculated after seven days of treatment with the FTI.

Another test deals with AML-193 cells. Described as above. It counts as cell-based. As to conditions: seven days of treatment, duplicate runs, read-out: IC50 (dose at which the number of viable cells in the treated sample was 50% of that in the control at day seven). The protocol: as §1, §2
The next test deals with THP-1 cells. Described as above. In kind it is cell-based. As to conditions: seven days of treatment, duplicate runs, read-out: IC50 (dose at which the number of viable cells in the treated sample was 50% of that in the control at day seven). As for the experimental part:
as §1, §2

A further test deals with HL-60 cells. The description is as above. It counts as cell-based. As to conditions: seven days of treatment, duplicate runs, read-out: IC50 (dose at which the number of viable cells in the treated sample was 50% of that in the control at day seven). As for the experimental part:
as §1, §2

The subject of test [1] is AML-like cell lines (AML-193, HL-60, THP-1, U-937). The test is described as follows: Time course assay with cDNA microarray gene expression profiling of treated AML-like cell lines. It counts as cell-based. Conditions: 100 nM. The protocol: Duplicate cultures of the cells of Example 1 were inoculated into 6-well plates at an initial concentration of 1×10^5 cells/ml. (B)-6-[amino(4-chlorophenyl)(1-methyl-1H-imidazol-5-yl)methyl]-4-(3-chlorophenyl)-1-methyl-2(1H)-quinolinone) was supplemented at a concentration of 100 nM in 3 μl of DMSO directly to the culture medium. The concentration of 100 nM was chosen for the subsequent time course experiments to normalize the treatment protocol based, in part, on the results of Example 2. Duplicate control cultures were grown in medium containing 0.1% DMSO. Duplicate cultures were harvested daily for a total of six days. Cells were counted, assayed for viability, and total RNA isolated according to the manufacturer's protocol (Qiagen RNeasy). […] RNA was treated with DNase1 (Qiagen DNase1 kit) to remove any residual genomic DNA. Linear amplification of RNA was conducted according to the procedure described in U.S. Pat. No. 5,545,522 to Van Gelder et. al. Aliquots of 5 μg of aRNA were then prepared for hybridization to cDNA arrays. […]
The arrays contained 7452 cDNAs from the IMAGE consortium (Integrated Molecular Analysis of Genome and their Expression: Research Genetics, Huntsville, Ala.) and Incyte libraries. […] The fluorescence intensity for each spot was analyzed with AUTOGENE software (Biodiscovery, Los Angeles). […]

Test [2] has as its system blast cells in bone marrow. Kind of test: Clinical response of AML patients treated with FTI (blast cells in bone marrow aspirates). It counts as in vivo. Conditions: 600 mg twice daily over a 21 day period. From the text:
The therapeutic agents referred to in this specification are FTIs. They take on a multitude of forms but share the essential inhibitory function of interfering with or lessening the farnesylation of proteins implicated in cancer and proliferative diseases. Preferably, the FTIs are those indicated for the treatment of leukemias such as AML. A patient who responds to an FTI is one in whom a reduction of more than 50% of blast cells is seen in bone marrow following treatment with the FTI.
Bone marrow aspirates were obtained from two patients diagnosed with AML who had been treated with FTI. These AML patients were administered 600 mg (B)-6-[amino(4-chlorophenyl)(1-methyl-1H-imidazol-5-yl)methyl]-4-(3-chlorophenyl)-1-methyl-2(1H)-quinolinone) twice daily over a 21 day period. Bone marrow aspirates were taken at baseline and once a week for the three weeks of treatment. […] Response was determined as a reduction of more than 50% of blast cells in bone marrow aspirates. The aspirates were diluted to 15 ml with PBS and Ficoll-density centrifuged. White blood cells were washed twice with PBS, resuspended in FBS with 10% DMSO and immediately frozen at −80° C. Cells were cryogenically preserved to maintain cell viability. Samples were thawed at 37° C. and 10× volume of RPMI with 20% FBS was added drop-wise over a period of 5 min. […] Cell viability was determined by Trypan Blue assay. […]

In the case of `Cn1cncc1[C@@](N)(c1ccc(Cl)cc1)c1ccc2c(c1)c(-c1cccc(Cl)c1)cc(=O)n2C` [(B)-6-[amino(4-chlorophenyl)(1-methyl-1H-imidazol-5-yl)methyl]-4-(3-chlorophenyl)-1-methyl-2(1H)-quinolinone)], the IC50 with U-937 cells came to 44 nM; with AML-193 cells it was 134 nM; in the test on THP-1 cells it was 19 nM; in the test on HL-60 cells, 24 nM. Moreover, the “Overall change in gene expression, treated versus control samples from the same day (scatter-plot correlation)” value in test [1] was “no gross changes in gene expression”. Further, the figures for the “Response (reduction of more than 50% of blast cells in bone marrow aspirates)” value in test [2] (AML patient one) and in test [2] (AML patient two) were “responded” and “did not respond”, respectively.
